In patent US5789384A, “Pharmaceutical dipeptide compositions and methods of use thereof” (priority 1995, dated 1998):

Settings: in vivo

CC[C@H](C)[C@H](N)C(=O)N[C@@H](Cc1c[nH]c2ccccc12)C(=O)O [Ile-Trp, L-Ile-L-Trp]
side effects from the use of the dipeptide: not found any significant side effects
